Laboratory results: US20220389061A1, “IMMUNOMODULATORS” (priority 2019, published 2022)
pIC50: −log10 of the molar value. Where two headings read alike, the source gives them in different places. Starred links: 1 amine or outer side, 2 acyl side, 3 side chain; linkers in the order of their positions; H or OH if unused. Positions of bridges follow the written chain, without caps; N, C: chain ends. Non-standard residues stand in square brackets, D forms with d. Residues, ends and D or L forms follow the SMILES beside them. Groups on a side chain read outwards from the residue. *: point of attachment. Trp(1-CH2CO2Me) = COC(=O)Cn1cc(C[C@H](N)C(=O)O)c2ccccc21; Trp(1-CH2COOH) = N[C@@H](Cc1cn(CC(=O)O)c2ccccc12)C(=O)O; Benzoyl(2-(4-MeOPh)) = COc1ccc(-c2ccccc2C(=O)*)cc1; X65 = CC(C)(C)OC(=O)Nc1ccc(NC(=S)*)cc1; Hyp = O=C(O)[C@@H]1C[C@@H](O)CN1; X14 = Cc1c[nH]c2c(NC(=S)*)cccc12; X84 = COc1cc(NC(=S)*)cc(OC)c1OC; pNA = O=[N+]([O-])c1ccc(N*)cc1; X42 = S=C(Nc1ccc2nccnc2c1Br)*; X69 = c1ccc(-c2ccc(N*)cc2)cc1; NMeNle = CCCC[C@H](NC)C(=O)O; X64 = COc1cc(OC)c(N*)cc1Cl; NMeA = CN[C@@H](C)C(=O)O; X58 = COc1cc(N*)cc(OC)c1; Dab = NCC[C@H](N)C(=O)O; Dap = NC[C@H](N)C(=O)O; CO = O=C([*:1])[*:2]

Molecular target: T1, PD-1/PD-L1 (Homo sapiens, UniProt Q9NZQ7)
T1 construct: TVMV protease site linker (C); made in house; host or cells: HEK293T cells
Assay: PD-1/PD-L1 Homogenous Time-Resolved Fluorescence (HTRF) binding assay
In short: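 HTRF read-out using europium cryptate anti-Ig (1 nM) and APC anti-His (20 nM) on extracellular-domain fusion proteins in dPBS/0.1% BSA/0.05% Tween-20. Inhibitor first incubated 15 min with 10 nM PD-L1-His, followed by 20 nM PD-1-Ig for another 15 min.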

[1] = PD-L1-His 10 nM pre-incubated with inhibitor, PD-1-Ig 20 nM, read-out: HTRF IC50

T1 sequence (Q9NZQ7 18-239): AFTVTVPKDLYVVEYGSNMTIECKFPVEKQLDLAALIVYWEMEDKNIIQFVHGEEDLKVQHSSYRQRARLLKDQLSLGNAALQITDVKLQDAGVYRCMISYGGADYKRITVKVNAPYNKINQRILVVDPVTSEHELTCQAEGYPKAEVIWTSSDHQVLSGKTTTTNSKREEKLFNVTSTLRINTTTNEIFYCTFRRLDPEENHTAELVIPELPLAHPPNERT

## CCCC[C@H]1C(=O)N(C)[C@@H](CCCC)C(=O)N[C@@H](CC(C)C)C(=O)N[C@H](C(=O)NCC(N)=O)CSCC(=O)N[C@@H](Cc2ccc(O)cc2)C(=O)N(C)[C@@H](C)C(=O)N[C@@H](CC(N)=O)C(=O)N2CCC[C@H]2C(=O)N[C@@H](CNC(=O)Nc2cc(OC)cc(OC)c2)C(=O)N[C@@H](CC(C)C)C(=O)N2C[C@H](O)C[C@H]2C(=O)N[C@@H](Cc2c[nH]c3ccccc23)C(=O)N[C@@H](CCN)C(=O)N[C@@H](Cc2cn(CC(=O)O)c3ccccc23)C(=O)N1C [Example 1064] ({CH2CO}-Y[NMeA]NP[Dap]([CO-X58])L[Hyp]W[Dab][Trp(1-CH2COOH)][NMeNle][NMeNle]LCG-NH2; thioether N-14)
[1]
  pIC50: 8.52

## CCCC[C@H]1C(=O)N(C)[C@@H](CCCC)C(=O)N[C@@H](CC(C)C)C(=O)N[C@H](C(=O)NCC(N)=O)CSCC(=O)N[C@@H](Cc2ccc(O)cc2)C(=O)N(C)[C@@H](C)C(=O)N[C@@H](CC(N)=O)C(=O)N2CCC[C@H]2C(=O)N[C@@H](CNC(=O)Nc2cc(Cl)c(OC)cc2OC)C(=O)N[C@@H](CC(C)C)C(=O)N2C[C@H](O)C[C@H]2C(=O)N[C@@H](Cc2c[nH]c3ccccc23)C(=O)N[C@@H](CCN)C(=O)N[C@@H](Cc2cn(CC(=O)O)c3ccccc23)C(=O)N1C [Example 1067] ({CH2CO}-Y[NMeA]NP[Dap]([CO-X64])L[Hyp]W[Dab][Trp(1-CH2COOH)][NMeNle][NMeNle]LCG-NH2; thioether N-14)
[1]
  pIC50: 8.57

## CCCC[C@H]1C(=O)N(C)[C@@H](CCCC)C(=O)N[C@@H](CC(C)C)C(=O)N[C@H](C(=O)NCC(N)=O)CSCC(=O)N[C@@H](Cc2ccc(O)cc2)C(=O)N(C)[C@@H](C)C(=O)N[C@@H](CC(N)=O)C(=O)N2CCC[C@H]2C(=O)N[C@@H](CNC(=S)Nc2cccc3c(C)c[nH]c23)C(=O)N[C@@H](CC(C)C)C(=O)N2C[C@H](O)C[C@H]2C(=O)N[C@@H](Cc2c[nH]c3ccccc23)C(=O)N[C@@H](CCN)C(=O)N[C@@H](Cc2cn(CC(=O)O)c3ccccc23)C(=O)N1C [Example 3020] ({CH2CO}-Y[NMeA]NP[Dap](X14)L[Hyp]W[Dab][Trp(1-CH2COOH)][NMeNle][NMeNle]LCG-NH2; thioether N-14)
[1]
  pIC50: 8.60

## CCCC[C@H]1C(=O)N(C)[C@@H](CCCC)C(=O)N[C@@H](CC(C)C)C(=O)N[C@H](C(=O)NCC(N)=O)CSCC(=O)N[C@@H](Cc2ccc(O)cc2)C(=O)N(C)[C@@H](C)C(=O)N[C@@H](CC(N)=O)C(=O)N2CCC[C@H]2C(=O)N[C@@H](CNC(=S)Nc2ccc3nccnc3c2Br)C(=O)N[C@@H](CC(C)C)C(=O)N2C[C@H](O)C[C@H]2C(=O)N[C@@H](Cc2c[nH]c3ccccc23)C(=O)N[C@@H](CCNC(=S)Nc2ccc3nccnc3c2Br)C(=O)N[C@@H](Cc2cn(CC(=O)O)c3ccccc23)C(=O)N1C [Example 3070] ({CH2CO}-Y[NMeA]NP[Dap](X42)L[Hyp]W[Dab](X42)[Trp(1-CH2COOH)][NMeNle][NMeNle]LCG-NH2; thioether N-14)
[1]
  pIC50: 8.23

## CCCC[C@H]1C(=O)N(C)[C@@H](CCCC)C(=O)N[C@@H](CC(C)C)C(=O)N[C@H](C(=O)NCC(N)=O)CSCC(=O)N[C@@H](Cc2ccc(O)cc2)C(=O)N(C)[C@@H](C)C(=O)N[C@@H](CC(N)=O)C(=O)N2CCC[C@H]2C(=O)N[C@@H](CNC(=O)Nc2ccc([N+](=O)[O-])cc2)C(=O)N[C@@H](CC(C)C)C(=O)N2C[C@H](O)C[C@H]2C(=O)N[C@@H](Cc2c[nH]c3ccccc23)C(=O)N[C@@H](CCNC(=O)Nc2ccc([N+](=O)[O-])cc2)C(=O)N[C@@H](Cc2cn(CC(=O)O)c3ccccc23)C(=O)N1C [Example 1130] ({CH2CO}-Y[NMeA]NP[Dap]([CO-pNA])L[Hyp]W[Dab]([CO-pNA])[Trp(1-CH2COOH)][NMeNle][NMeNle]LCG-NH2; thioether N-14)
  pIC50: 8.70

## CCCC[C@H]1C(=O)N(C)[C@@H](CCCC)C(=O)N[C@@H](CC(C)C)C(=O)N[C@H](C(=O)NCC(N)=O)CSCC(=O)N[C@@H](Cc2ccc(O)cc2)C(=O)N(C)[C@@H](C)C(=O)N[C@@H](CC(N)=O)C(=O)N2CCC[C@H]2C(=O)N[C@@H](CNC(=S)Nc2ccc(NC(=O)OC(C)(C)C)cc2)C(=O)N[C@@H](CC(C)C)C(=O)N2C[C@H](O)C[C@H]2C(=O)N[C@@H](Cc2c[nH]c3ccccc23)C(=O)N[C@@H](CCN)C(=O)N[C@@H](Cc2cn(CC(=O)O)c3ccccc23)C(=O)N1C [Example 1040] ({CH2CO}-Y[NMeA]NP[Dap](X65)L[Hyp]W[Dab][Trp(1-CH2COOH)][NMeNle][NMeNle]LCG-NH2; thioether N-14)
[1]
  pIC50: 8.41

## CCCC[C@H]1C(=O)N(C)[C@@H](CCCC)C(=O)N[C@@H](CC(C)C)C(=O)N[C@H](C(=O)NCC(N)=O)CSCC(=O)N[C@@H](Cc2ccc(O)cc2)C(=O)N(C)[C@@H](C)C(=O)N[C@@H](CC(N)=O)C(=O)N2CCC[C@H]2C(=O)N[C@@H](CNC(=S)Nc2cc(OC)c(OC)c(OC)c2)C(=O)N[C@@H](CC(C)C)C(=O)N2C[C@H](O)C[C@H]2C(=O)N[C@@H](Cc2c[nH]c3ccccc23)C(=O)N[C@@H](CCNC(=S)Nc2cc(OC)c(OC)c(OC)c2)C(=O)N[C@@H](Cc2cn(CC(=O)O)c3ccccc23)C(=O)N1C [Example 1083] ({CH2CO}-Y[NMeA]NP[Dap](X84)L[Hyp]W[Dab](X84)[Trp(1-CH2COOH)][NMeNle][NMeNle]LCG-NH2; thioether N-14)
[1]
  pIC50: 9.22

## CCCC[C@H]1C(=O)N(C)[C@@H](CCCC)C(=O)N[C@@H](CC(C)C)C(=O)N[C@H](C(=O)NCC(N)=O)CSCC(=O)N[C@@H](Cc2ccc(O)cc2)C(=O)N(C)[C@@H](C)C(=O)N[C@@H](CC(N)=O)C(=O)N2CCC[C@H]2C(=O)N[C@@H](CNC(=O)c2ccccc2-c2ccc(OC)cc2)C(=O)N[C@@H](CC(C)C)C(=O)N2C[C@H](O)C[C@H]2C(=O)N[C@@H](Cc2c[nH]c3ccccc23)C(=O)N[C@@H](CCN)C(=O)N[C@@H](Cc2cn(CC(=O)O)c3ccccc23)C(=O)N1C [Example 1061] ({CH2CO}-Y[NMeA]NP[Dap](Benzoyl(2-(4-MeOPh)))L[Hyp]W[Dab][Trp(1-CH2COOH)][NMeNle][NMeNle]LCG-NH2; thioether N-14)
[1]
  pIC50: 8.40

## CCCC[C@H]1C(=O)N(C)[C@@H](CCCC)C(=O)N[C@@H](CC(C)C)C(=O)N[C@H](C(=O)NCC(N)=O)CSCC(=O)N[C@@H](Cc2ccc(OC)cc2)C(=O)N(C)[C@@H](C)C(=O)N[C@@H](CC(N)=O)C(=O)N2CCC[C@H]2C(=O)N[C@@H](CNC(=O)c2ccccc2-c2ccc(OC)cc2)C(=O)N[C@@H](CC(C)C)C(=O)N2C[C@H](O)C[C@H]2C(=O)N[C@@H](Cc2c[nH]c3ccccc23)C(=O)N[C@@H](CCNC(=O)c2ccccc2-c2ccc(OC)cc2)C(=O)N[C@@H](Cc2cn(CC(=O)OC)c3ccccc23)C(=O)N1C [Example 1075] ({CH2CO}-Y(Me)[NMeA]NP[Dap](Benzoyl(2-(4-MeOPh)))L[Hyp]W[Dab](Benzoyl(2-(4-MeOPh)))[Trp(1-CH2CO2Me)][NMeNle][NMeNle]LCG-NH2; thioether N-14)
[1]
  pIC50: 7.04

## CCCC[C@H]1C(=O)N(C)[C@@H](CCCC)C(=O)N[C@@H](CC(C)C)C(=O)N[C@H](C(=O)NCC(N)=O)CSCC(=O)N[C@@H](Cc2ccc(O)cc2)C(=O)N(C)[C@@H](C)C(=O)N[C@@H](CC(N)=O)C(=O)N2CCC[C@H]2C(=O)N[C@@H](CNC(=O)Nc2ccc(-c3ccccc3)cc2)C(=O)N[C@@H](CC(C)C)C(=O)N2C[C@H](O)C[C@H]2C(=O)N[C@@H](Cc2c[nH]c3ccccc23)C(=O)N[C@@H](CCNC(=O)Nc2ccc(-c3ccccc3)cc2)C(=O)N[C@@H](Cc2cn(CC(=O)O)c3ccccc23)C(=O)N1C [Example 1011] ({CH2CO}-Y[NMeA]NP[Dap]([CO-X69])L[Hyp]W[Dab]([CO-X69])[Trp(1-CH2COOH)][NMeNle][NMeNle]LCG-NH2; thioether N-14)
  pIC50: 7.77
